Results reported in patent publication US20140187505A1, “Cardiac Glycosides to Treat Cystic Fibrosis and Other IL-8 Dependent Disorders” (priority 2002, published 2014).
Read-outs that look alike come from different tables or passages of the source.

Legend:
[1] = mobile phase: methanol/water 30:70; cited from earlier work
[2] = eluent acetonitrile/water 45:55; cited from earlier work
[3] = system: guinea-pig heart Na^+-K^+-ATPase; details: cited from earlier work
[4] = octanol/water (20 mM TRIS-HCl, pH 7.4), cited from earlier work
[5] = system: IL-8 secretion from cystic fibrosis lung epithelial IB3-1 cells

Molecule | RM values (lipophilicity, reversed-phase thin layer chromatography) [1] | K retentions for reversed-phase high pressure liquid chromatography [2] | ID50 [3] | P (partition coefficient in octanol/water system) [4] | Activity on IL-8 secretion ([5]; at a concentration of 1000 nM (1 micromolar)) | IC50 ([5]; read-out: IC50 nmol/L in cells, 50% suppression of spontaneous IL-8 secretion, IB3-1 cells, 48 hours) | R values for reversed-phase thin layer chromatography [1] | P (partition coefficient in octanol/water system) ([4]; listed as B-methyl digitoxin)
12-Acetyl-β-methyldigoxin | 1.26 | 4.04 | 25.55 ± 1.70 ×10^−4 mol l^−1 | 746.0 ± 71.3 |  |  |  | 
CC(=O)O[C@H]1CC[C@@]2(C)[C@H](CC[C@@H]3[C@@H]2C[C@@H](OC(C)=O)[C@]2(C)[C@@H](C4=CC(=O)OC4)CC[C@]32O)C1 (single isomer, unassigned; diac) [digoxigenin3,12 diAC, digoxigenin 3,12 diAC] |  |  |  |  | entirely inactive | > 1000 nmol/L |  | 
CC(=O)O[C@@H]1C[C@H]2[C@@H](CC[C@@H]3C[C@@H](O[C@H]4C[C@H](O)[C@H](O[C@H]5C[C@H](O)[C@H](O[C@H]6C[C@H](O)[C@H](O)[C@@H](C)O6)[C@@H](C)O5)[C@@H](C)O4)CC[C@@]32C)[C@@]2(O)CC[C@H](C3=CC(=O)OC3)[C@@]12C [12-Acetyldigoxin] | 0.89 | 1.60 | 20.90 ± 0.98 ×10^−4 mol l^−1 | 195.0 ± 17.5 |  |  |  | 
CC(=O)O[C@H]1C[C@]2(O)[C@@H]3CC[C@@H]4C[C@@H](O[C@H]5C[C@H](O)[C@H](O[C@H]6C[C@H](O)[C@H](O[C@H]7C[C@H](O)[C@H](O)[C@@H](C)O7)[C@@H](C)O6)[C@@H](C)O5)CC[C@]4(C)[C@H]3CC[C@]2(C)[C@H]1C1=CC(=O)OC1 [16-Acetylgitoxin] | 0.89 | 2.27 | 0.85 ± 0.01 ×10^−4 mol l^−1 | 144.0 ± 32.8 |  |  |  | 
C[C@H]1O[C@@H](O[C@H]2[C@@H](O)C[C@H](O[C@H]3[C@@H](O)C[C@H](O[C@H]4CC[C@@]5(C)[C@H](CC[C@@H]6[C@@H]5CC[C@]5(C)[C@@H](C7=CC(=O)OC7)[C@@H](OC=O)C[C@]65O)C4)O[C@@H]3C)O[C@@H]2C)C[C@H](O)[C@@H]1O [16-Formylgitoxin] | 0.84 | 1.82 | 0.78 ± 0.01 ×10^−4 mol l^−1 | 110.9 ± 6.2 |  |  |  | 
C[C@H]1O[C@@H](O[C@H]2[C@@H](O)C[C@H](O[C@H]3[C@@H](O)C[C@H](O[C@H]4CC[C@@]5(C)[C@H](CC[C@@H]6[C@@H]5CC[C@]5(C)[C@H](C7COC(=O)C7)CC[C@]65O)C4)O[C@@H]3C)O[C@@H]2C)C[C@H](O)[C@@H]1O (stereo partly drawn) [Dihydro-digitoxin] | 1.42 | 3.40 | 32.40 ± 2.85 ×10^−4 mol l^−1 | 800.0 ± 112.0 |  |  |  | 
C[C@@H]1O[C@@H](O[C@H]2C[C@@H](O)[C@]3(CO)[C@H]4[C@H](O)C[C@]5(C)[C@@H]([C@@H]6COC(=O)C6)CC[C@]5(O)[C@@H]4CC[C@]3(O)C2)[C@H](O)[C@H](O)[C@H]1O [Dihydro-ouabain] | −0.71 | 0.15 | 45.50 ± 3.90 ×10^−4 mol l^−1 | 0.20 ± 0.00 |  |  |  | 
C[C@H]1O[C@@H](O[C@H]2CC[C@@]3(C)[C@H](CC[C@@H]4[C@@H]3CC[C@]3(C)[C@@H](C5=CC(=O)OC5)[C@@H](O)C[C@]43O)C2)C[C@H](O)[C@@H]1O [Gitoxigenin-mono-digitoxoside] | 0.46 | 0.83 | 2.56 ± 0.21 ×10^−4 mol l^−1 | 60.1 ± 10.0 |  |  |  | 
C[C@]12CC[C@H](O)C[C@H]1CC[C@@H]1[C@@H]2CC[C@]2(C)[C@@H](C3=CC(=O)OC3)[C@@H](O)C[C@]12O [Gitoxigenin] | 0.38 | 0.67 | 21.37 ± 0.97 ×10^−4 mol l^−1 | 44.1 ± 1.8 |  |  |  | 
C[C@H]1O[C@@H](O[C@H]2[C@@H](O)C[C@H](O[C@H]3[C@@H](O)C[C@H](O[C@H]4CC[C@@]5(C)[C@H](CC[C@@H]6[C@@H]5CC[C@]5(C)[C@@H](C7=CC(=O)OC7)[C@@H](O)C[C@]65O)C4)O[C@@H]3C)O[C@@H]2C)C[C@H](O)[C@@H]1O [Gitoxin] | 0.68 | 1.28 | 2.55 ± 0.14 ×10^−4 mol l^−1 | 48.0 ± 11.2 |  |  |  | 
CC(=O)O[C@H]1[C@@H](OC(C)=O)C[C@H](O[C@H]2[C@@H](OC(C)=O)C[C@H](O[C@H]3[C@@H](OC(C)=O)C[C@H](O[C@H]4CC[C@@]5(C)[C@H](CC[C@@H]6[C@@H]5CC[C@]5(C)[C@@H](C7=CC(=O)OC7)[C@@H](OC(C)=O)C[C@]65O)C4)O[C@@H]3C)O[C@@H]2C)O[C@@H]1C [Pentaacetylgitoxin] | 1.86 | 49.45 | 112.00 ± 10.70 ×10^−4 mol l^−1 | 2890.0 ± 668.0 |  |  |  | 
C[C@H]1O[C@@H](O[C@H]2[C@@H](OC=O)C[C@H](O[C@H]3[C@@H](OC=O)C[C@H](O[C@H]4CC[C@@]5(C)[C@H](CC[C@@H]6[C@@H]5CC[C@]5(C)[C@@H](C7=CC(=O)OC7)[C@@H](OC=O)C[C@]65O)C4)O[C@@H]3C)O[C@@H]2C)C[C@H](OC=O)[C@@H]1OC=O [Pentaformylgitoxin] | 1.85 | 8.99 | 0.23 ± 0.00 ×10^−4 mol l^−1 | 1440.0 ± 118.3 |  |  |  | 
C[C@]12CC[C@H]3[C@@H](CC[C@]4(O)C[C@@H](O)CC[C@]34C=O)[C@@]1(O)CC[C@@H]2C1=CC(=O)OC1 [k-Strophanthidin] |  | 0.42 | 17.80 ± 0.81 ×10^−4 mol l^−1 | 3.60 ± 0.5 |  |  | −0.14 | 
CO[C@H]1C[C@H](O[C@H]2CC[C@]3(C=O)[C@H]4CC[C@]5(C)[C@@H](C6=CC(=O)OC6)CC[C@]5(O)[C@@H]4CC[C@]3(O)C2)O[C@H](C)[C@H]1O [k-Strophanthin-α] | −0.09 | 0.79 | 1.29 ± 0.14 ×10^−4 mol l^−1 | 4.40 ± 0.3 |  |  |  | 
CO[C@H]1C[C@H](O[C@H]2CC[C@]3(C=O)[C@H]4CC[C@]5(C)[C@@H](C6=CC(=O)OC6)CC[C@]5(O)[C@@H]4CC[C@]3(O)C2)O[C@H](C)[C@H]1O[C@@H]1O[C@H](CO)[C@@H](O)[C@H](O)[C@H]1O [k-Strophanthin-β] | −0.50 | 0.22 | 2.51 ± 0.12 ×10^−4 mol l^−1 | 0.11 ± 0.01 |  |  |  | 
CO[C@H]1C[C@H](O[C@H]2CC[C@]3(C=O)[C@H]4CC[C@]5(C)[C@@H](C6=CC(=O)OC6)CC[C@]5(O)[C@@H]4CC[C@]3(O)C2)O[C@H](C)[C@H]1O[C@@H]1O[C@H](CO[C@@H]2O[C@H](CO)[C@@H](O)[C@H](O)[C@H]2O)[C@@H](O)[C@H](O)[C@H]1O [k-Strophanthin-γ] | −0.62 | 0.21 | 2.47 ± 0.25 ×10^−4 mol l^−1 | 0.15 ± 0.07 |  |  |  | 
COC1C(O)CC(OC2C(O)CC(OC3C(O)CC(OC4CCC5(C)C(CCC6C5CCC5(C)C(C7=CC(=O)OC7)CCC65O)C4)OC3C)OC2C)OC1C (stereo not drawn) [β-Methyldigitoxin] | 1.71 | 8.28 | 0.40 ± 0.03 ×10^−4 mol l^−1 | 1300.0 ± 227.0 |  |  |  | 1300
CO[C@H]1[C@@H](O)C[C@H](O[C@H]2[C@@H](O)C[C@H](O[C@H]3[C@@H](O)C[C@H](O[C@H]4CC[C@@]5(C)[C@H](CC[C@@H]6[C@@H]5C[C@@H](O)[C@]5(C)[C@@H](C7=CC(=O)OC7)CC[C@]65O)C4)O[C@@H]3C)O[C@@H]2C)O[C@@H]1C [β-Methyldigoxin] |  | 1.19 | 1.55 ± 0.06 ×10^−4 mol l^−1 | 63.3 ± 20.9 |  |  |  | 
Dihydro-digoxin | 0.24 | 0.51 | 40.90 ± 3.35 ×10^−4 mol l^−1 |  |  |  |  | 
α,β-Diacetyldigoxin | 1.16 | 4.31 | 1.27 ± 0.02 ×10^−4 mol l^−1 | 392.0 ± 82.0 |  |  |  | 
α,β-Dimethyldigoxin | 0.94 | 2.76 | 1.28 ± 0.06 ×10^−4 mol l^−1 | 138.0 ± 12.1 |  |  |  | 
α-Acetyldigoxin | 0.50 | 0.99 | 2.50 ± 0.31 ×10^−4 mol l^−1 | 54.6 ± 7.8 |  |  |  | 
α-Methyldigoxin | 0.54 | 1.13 | 2.23 ± 0.11 ×10^−4 mol l^−1 | 56.6 ± 9.8 |  |  |  | 
β-Acetyldigoxin | 0.70 | 1.25 | 1.60 ± 0.02 ×10^−4 mol l^−1 | 99.2 ± 4.1 |  |  |  | 
